Assay results from patent US10265286B2, “Sequelae of cardiopulmonary bypass-induced pulmonary injury” (Vanderbilt University, priority 2016, dated 2019).

Experiments:
[1] = test system: human vascular endothelial cells; assay: Nitric oxide production by cultured human vascular endothelial cells (FIG. 23); type: cell-based; conditions: cells stimulated with acetylcholine; nitrate/nitrites by Seiver's system
Procedure: These agents were administered to cultured human vascular endothelial cells stimulated with acetylcholine. Measurement of nitric oxide was through a Seiver's system of nitrate/nitrites.

[2] = Hemodynamics (mean arterial blood pressure) after intravenous citrulline in piglets; type: in vivo, Duroc swine; conditions: 600 mg/kg IV
Procedure: The objective was to assess the safety of intravenous citrulline and its effect on serum arginine levels in piglets. A total of 9 Duroc swine, aged 5-21 days, with a target minimum weight of 4 kg were utilized. All piglets underwent anesthetic induction and tracheostomy. Central lines were placed in the femoral artery and femoral vein and hemodynamics monitored continuously. Citrulline (600 mg/kg IV) was administered to 5 piglets. Saline was given to control animals. Serum amino acids were drawn before and each hour after citrulline administration.

[3] = Perioperative oral citrulline supplementation in children undergoing congenital cardiac surgery; type: in vivo, human
Procedure: Initial supplementation trials utilized oral citrulline at a dose of 1.9 g/kg before cardiopulmonary bypass, immediately postoperatively and every 12 hours, continuing for 48 hours after surgery.
40 patients with one of the 5 surgical diagnoses identified above were randomized to receive 5 doses of oral citrulline (1.9 grams/kg) vs. placebo. The first dose was administered immediately prior to surgery and the second dose immediately on arrival in the Pediatric ICU after surgery followed every 12 hours×3 doses.

[4] = Intravenous citrulline dose escalation safety (adverse effects, hypotension); type: in vivo, human
Procedure: The initial goal was to test the safety and pharmacokinetics of three doses of intravenous citrulline in children undergoing surgical repair of specific congenital heart defects. […] An adverse drop in mean arterial pressure was defined as a greater than a twenty percent decrease from baseline. The baseline postoperative mean arterial blood pressure was calculated as the average of mean arterial blood pressure measurements collected every 5 minutes for the 30 minutes immediately preceding the administration of the postoperative dose or infusion.

[5] = Revised dosing protocol study: duration of respiratory support and cardiovascular parameters (Example 8); type: in vivo, human
Source text: The study in this example was undertaken to test a revised dosing protocol designed to achieve and maintain therapeutic citrulline levels in the face of ultrafiltration and crystalloid replacement. […] The study recruited 22 patients randomized in equal numbers of 11 patients each to placebo and citrulline arms.
Early in the course of the study, it was recognized that one of the two participating centers routinely extubated all patients in the operating room immediately following cessation of cardiopulmonary bypass. This precluded use of the duration of mechanical ventilation as an endpoint. Instead, a post-hoc analysis was applied using the duration of all forms of ventilatory support as a possible endpoint. […] In contrast, contingency table analysis, shown in FIG. 16, did achieve borderline significance. Overall, the results are considered to represent a strong trend.

[6] = Phase IB study: vasoactive medications; type: in vivo, human
Procedure: The total number of hours on vasoactive medications, including nitroglycerin, nitroprusside and vasopressin, was calculated from the end of surgery until the discontinuation of vasoactive medications or end of study medication (Hour 48), whichever occurred first. Table 14 compares the length of time on vasoactive medications for the citrulline and placebo treatment groups. The overall duration of concomitant vasoactive treatment was shorter in citrulline—than placebo-treated patients, but the difference was not statistically significant. Similar results are shown for the total vasoactive score. However, the patient receiving citrulline did, in fact, show a shorter total duration of vasoactive medication as shown in FIG. 30.

[7] = Phase IB study: duration of ICU stay; type: in vivo, human
Procedure: Duration of ICU stay was analyzed once as the total number of postoperative hours spent in the ICU and once as the total number of postoperative hours that a patient required postoperative mechanical ventilator or continuous intravenous inotrope or vasodilator support. The latter combination of parameters represents another surrogate endpoint for ICU stay.

[8] = Phase IB study: composite of invasive mechanical ventilation or inotrope use; type: in vivo, human
Source text: The cessation of positive pressure ventilation and of inotrope therapy are the two principal determinants of readiness for discharge from the intensive care unit. They were combined as a composite variable to serve as an additional effective surrogate endpoint for the duration of ICU stay.
The composite endpoint comprised the longer of the duration of positive pressure ventilatory support or of inotrope therapy. Since inotrope use was only documented until Hour 48 after surgery (end of study medication treatment), patients with inotrope use continuing until Hour 48 and with mechanical ventilation duration of ≤48 h were censored at this time point. If mechanical ventilation was continued beyond the 48-hour time point, the duration of mechanical ventilation was used in the analysis.

[9] = Phase IB study: duration of hospitalization; type: in vivo, human; conditions: postoperative until discharge
Procedure: Duration of hospitalization was calculated as the total number of days postoperative until discharge from the hospital. The average duration of hospitalization was lower in the citrulline than the placebo treatment group, however, the difference was not statistically significant (Table 17).

[10] = end of surgery until discontinuation or Hour 48
[11] = total postoperative hours in ICU

For `NC(=O)NCCCC(N)C(=O)O` (stereo not shown) [Citrulline, 2-amino-5-(carbamoylamino)pentanoic acid], the “production of nitric oxide” value [1] was “increases the production of NO”, the hemodynamic instability [2] was “No hemodynamic instability” and the “Mean Arterial Blood Pressures” value ([2]; 1 hour post) was 67.4 mmHg. For the same compound, the “Mean Arterial Blood Pressures” value ([2]; 2 hours post) was 64.8 mmHg, the “Mean Arterial Blood Pressures” value ([2]; 3 hours post) was 62.2 mmHg and the “Mean Arterial Blood Pressures” value ([2]; Pre-dose) was 67.0 mmHg. The Plasma citrulline levels ([3]; 5 doses of oral citrulline 1.9 grams/kg, placebo 26) was 36 µmol/L, the tolerability ([3]; oral 1.9 g/kg before CPB, postoperatively and every 12 hours for 48 hours) was “well tolerated with no evidence of significant adverse events” and the adverse side effects ([4]; 50 mg/kg IV) was “No adverse side effects were noted”. For the same compound, the adverse side effects ([4]; 100 mg/kg IV) was “no adverse side effects were noted”, the adverse effects ([4]; IV doses 200, 400, and 600 mg/kg) was “no adverse effects were noted” and the “adverse effects including hypotension” value ([4]; any of 50, 100, 150 mg/kg IV) was “no adverse effects including hypotension”. For the same compound, the adverse side effects ([4]; bolus 150 mg/kg plus continuous infusion 9 mg/kg/hr) was “No adverse side effects were noted”, the significant adverse events ([4]; bolus 150 mg/kg plus infusion 9 mg/kg/hour for 48 hours, 9 patients) was “one significant adverse event but it was not related to the use of IV citrulline” and the “systolic and diastolic blood pressure versus placebo” value ([5]; FIG. 18A) was “No significant change in systolic and diastolic blood pressure”. For the same compound, the “mean arterial pressure versus placebo” value ([5]; FIG. 18B) was “No significant change in the mean arterial pressure”, the “patients with Duration of Respiratory Support ≤50 hours” value ([5]; contingency table, placebo 3) was 7 and the “patients with Duration of Respiratory Support >50 hours” value ([5]; contingency table, placebo 8) was 2. The “inotrope scores versus placebo” value ([5]; particularly from 15 to 18 hours onward following ICU admission (FIG. 17)) was “markedly better inotrope scores”, the “adverse effects upon hemodynamic parameters” value ([5]; revised dosing protocol) was “No adverse effects upon hemodynamic parameters were observed” and the “Total vasoactive score, Mean ± SD” value ([6]; N = 11) was 5.5 ± 10.62. For the same compound, the “Length of time on vasoactive medications, Diff (CI) placebo vs citrulline” value [6, 10] was 3.5 (−7.0, 14.1) hours, the “Length of time on vasoactive medications, Median” value [6, 10] was 1.0 h and the “Length of time on vasoactive medications, Range” value [6, 10] was 0.0 to 17.0 h. The “Length of time on vasoactive medications, Mean ± SD” value ([6]; end of surgery until discontinuation or Hour 48, N = 11) was 6.3 ± 7.18 h, the “Total vasoactive score, Diff (CI) placebo vs citrulline” value ([6]; in vivo) was 5.2 (−7.7, 18.0) and the “Total vasoactive score, Median” value ([6]; in vivo) was 1.1. For the same compound, the “Total vasoactive score, Range” value ([6]; in vivo) was 0.0-35.5, the “Longest duration of mechanical ventilation, i.v. inotrope use, or vasodilator use, Diff (CI) placebo vs citrulline” value ([7]; re-intubation excluded) was 17.5 (−1.2, 36.2) hours and the “Longest duration of mechanical ventilation, i.v. inotrope use, or vasodilator use, Mean ± SD” value ([7]; re-intubation excluded) was 14.5 ± 13.99 h. The “Longest duration of mechanical ventilation, i.v. inotrope use, or vasodilator use, Median” value ([7]; re-intubation excluded) was 15.0 h, the “Longest duration of mechanical ventilation, i.v. inotrope use, or vasodilator use, Range” value ([7]; re-intubation excluded) was 0.0 to 47.0 h and the “Longest duration of mechanical ventilation, i.v. inotrope use, or vasodilator use, Diff (CI) placebo vs citrulline” value ([7]; re-intubation included) was 29.9 (−11.0, 70.9) hours. The “Longest duration of mechanical ventilation, i.v. inotrope use, or vasodilator use, Mean ± SD” value ([7]; re-intubation included) was 14.5 ± 13.99 h, the “Longest duration of mechanical ventilation, i.v. inotrope use, or vasodilator use, Median” value ([7]; re-intubation included) was 15.0 h and the “Longest duration of mechanical ventilation, i.v. inotrope use, or vasodilator use, Range” value ([7]; re-intubation included) was 0.0 to 47.0 h. The “Duration of PICU stay, Diff (CI) placebo vs citrulline” value [7, 11] was 69.14 (−49.39, 187.67) hours, the “Duration of PICU stay, Median” value [7, 11] was 28.52 h and the “Duration of PICU stay, Range” value [7, 11] was 20.8 to 72.0 h. For the same compound, the “Duration of PICU stay, Mean ± SD” value ([7]; total postoperative hours in ICU, N = 11) was 35.94 ± 16.150 h, the “Composite duration of invasive mechanical ventilation or inotrope use, Diff (CI) placebo vs citrulline” value ([8]; Re-intubation time excluded) was 17.7 (−1.0, 36.4) hours and the “Composite duration of invasive mechanical ventilation or inotrope use, Mean ± SD” value ([8]; Re-intubation time excluded) was 14.3 ± 14.06 h. The “Composite duration of invasive mechanical ventilation or inotrope use, Median” value ([8]; Re-intubation time excluded) was 15.0 h, the “Composite duration of invasive mechanical ventilation or inotrope use, Range” value ([8]; Re-intubation time excluded) was 0.0 to 47.0 h and the “Composite duration of invasive mechanical ventilation or inotrope use, Diff (CI) placebo vs citrulline” value ([8]; Re-intubation time included) was 30.2 (−10.8, 71.1) hours. For the same compound, the “Composite duration of invasive mechanical ventilation or inotrope use, Mean ± SD” value ([8]; Re-intubation time included) was 14.3 ± 14.06 h, the “Composite duration of invasive mechanical ventilation or inotrope use, Median” value ([8]; Re-intubation time included) was 15.0 h and the “Composite duration of invasive mechanical ventilation or inotrope use, Range” value ([8]; Re-intubation time included) was 0.0 to 47.0 h. The “Duration of hospitalization, Diff (CI) placebo vs citrulline” value [9] was 3.7 (−2.2, 9.7) days, the “Duration of hospitalization, Median” value [9] was 5.0 days and the “Duration of hospitalization, Range” value [9] was 3.0 to 7.0 days. For the same compound, the “Duration of hospitalization, Mean ± SD” value ([9]; N = 11) was 4.6 ± 1.21 days.
